According to ChEMBL document CHEMBL1201862, “PubChem BioAssay data set” (2004):
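Dose response: 5 concentrations. Exposure: 48 h. Format: 96-well plates. Endpoint: linear interpolation; highest concentration if not reached. Here, GI50 denotes the concentration required for 50% inhibition of growth.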 The source made the active and inactive calls. Rule as the data show it: active = GI50 up to about 1.1 µM and inactive = higher.

Legend:
Experiment in all cases: growth of human tumour cells (NCI), 48 h
786-0 = test system: 786-0
OVCAR-3 = test system: OVCAR-3
PC-3 = test system: PC-3
SNB-19 = test system: SNB-19
HOP-92 = test system: HOP-92
HT-29 = test system: HT-29
SNB-75 = test system: SNB-75
ACHN = test system: ACHN
CCRF-CEM = test system: CCRF-CEM
LOX IMVI = test system: LOX IMVI
OVCAR-5 = test system: OVCAR-5
MCF7 = test system: MCF7
MDA-MB-231 = test system: MDA-MB-231
A549 = test system: A549
SF-295 = test system: SF-295
NCI-H460 = test system: NCI-H460
CAKI-1 = test system: CAKI-1
HL-60 = test system: HL-60
UO-31 = test system: UO-31
DU-145 = test system: DU-145
SK-MEL-2 = test system: SK-MEL-2
HOP-62 = test system: HOP-62
MDA-MB-435 = test system: MDA-MB-435
SK-MEL-5 = test system: SK-MEL-5
SF-268 = test system: SF-268
Hs-578T = test system: Hs-578T
NCI/ADR-RES = test system: NCI/ADR-RES
K562 = test system: K562
A498 = test system: A498
TK-10 = test system: TK-10
SK-OV-3 = test system: SK-OV-3
HCT-15 = test system: HCT-15
NCI-H23 = test system: NCI-H23
BT-549 = test system: BT-549
MDA-N = test system: MDA-N
IGROV-1 = test system: IGROV-1
KM12 = test system: KM12
UACC-257 = test system: UACC-257
HCC 2998 = test system: HCC 2998
EKVX = test system: EKVX
SN12C = test system: SN12C
T47D = test system: T47D
OVCAR-4 = test system: OVCAR-4
COLO 205 = test system: COLO 205
SW-620 = test system: SW-620
NCI-H522 = test system: NCI-H522
U-251 = test system: U-251
RPMI-8226 = test system: RPMI-8226
SF-539 = test system: SF-539
RXF 393 = test system: RXF 393
OVCAR-8 = test system: OVCAR-8
NCI-H226 = test system: NCI-H226
UACC-62 = test system: UACC-62
M14 = test system: M14
HCT-116 = test system: HCT-116
MOLT-4 = test system: MOLT-4

Q: Which results are given for `Cc1nc(C)c(C(=O)NNC(=O)c2ccccc2)cc1C(=O)NNC(=O)c1ccccc1`?
A: GI50 (786-0): > 100 µM (inactive); GI50 (OVCAR-3): > 100 µM (inactive); GI50 (PC-3): > 100 µM (inactive); GI50 (SNB-19): > 100 µM (inactive); GI50 (HOP-92): > 100 µM (inactive); GI50 (HT-29): > 100 µM (inactive); GI50 (SNB-75): > 10 µM (inactive); GI50 (ACHN): > 100 µM (inactive); GI50 (CCRF-CEM): > 100 µM (inactive); GI50 (LOX IMVI): > 100 µM (inactive); GI50 (OVCAR-5): > 100 µM (inactive); GI50 (MCF7): > 100 µM (inactive); GI50 (MDA-MB-231): > 100 µM (inactive); GI50 (A549): > 100 µM (inactive); GI50 (SF-295): > 100 µM (inactive); GI50 (NCI-H460): > 100 µM (inactive); GI50 (CAKI-1): > 100 µM (inactive); GI50 (HL-60): > 100 µM (inactive); GI50 (UO-31): > 100 µM (inactive); GI50 (DU-145): > 100 µM (inactive); GI50 (SK-MEL-2): > 100 µM (inactive); GI50 (HOP-62): > 100 µM (inactive); GI50 (MDA-MB-435): > 100 µM (inactive); GI50 (SK-MEL-5): > 100 µM (inactive); GI50 (SF-268): > 100 µM (inactive); GI50 (Hs-578T): > 100 µM (inactive); GI50 (NCI/ADR-RES): > 100 µM (inactive); GI50 (K562): > 100 µM (inactive); GI50 (A498): > 100 µM (inactive); GI50 (TK-10): > 100 µM (inactive); GI50 (SK-OV-3): > 100 µM (inactive); GI50 (HCT-15): > 100 µM; GI50 (NCI-H23): > 100 µM (inactive); GI50 (BT-549): > 100 µM (inactive); GI50 (MDA-N): > 100 µM (inactive); GI50 (IGROV-1): > 10 µM (inactive); GI50 (KM12): > 10 µM (inactive); GI50 (UACC-257): > 100 µM (inactive); GI50 (HCC 2998): > 100 µM (inactive); GI50 (EKVX): > 10 µM (inactive); GI50 (SN12C): > 100 µM (inactive); GI50 (T47D): > 100 µM (inactive); GI50 (OVCAR-4): > 100 µM (inactive); GI50 (COLO 205): > 100 µM (inactive); GI50 (SW-620): > 100 µM (inactive); GI50 (NCI-H522): > 100 µM (inactive); GI50 (U-251): > 100 µM (inactive); GI50 (RPMI-8226): > 100 µM (inactive); GI50 (SF-539): > 100 µM (inactive); GI50 (RXF 393): > 100 µM (inactive); GI50 (OVCAR-8): > 100 µM (inactive); GI50 (NCI-H226): > 100 µM (inactive); GI50 (UACC-62): > 100 µM (inactive); GI50 (M14): > 100 µM (inactive); GI50 (HCT-116): > 100 µM (inactive); GI50 (MOLT-4): > 100 µM (inactive)
